pKd: −log10 of the molar value. Active and inactive are the calls of the source.
Columns and labels:
[1] = molecular target: Serine/threonine-protein kinase PAK 4 (Homo sapiens, UniProt O96013)
[2] = molecular target: Putative heat shock protein HSP 90-beta 2 (Homo sapiens, UniProt Q58FF8)
Actin-related protein 2 = Actin-related protein 2 (Homo sapiens, UniProt P61160)
[3] = molecular target: T1, Ferrochelatase, mitochondrial (Homo sapiens, UniProt P22830)
T1 sequence (P22830 whole entry): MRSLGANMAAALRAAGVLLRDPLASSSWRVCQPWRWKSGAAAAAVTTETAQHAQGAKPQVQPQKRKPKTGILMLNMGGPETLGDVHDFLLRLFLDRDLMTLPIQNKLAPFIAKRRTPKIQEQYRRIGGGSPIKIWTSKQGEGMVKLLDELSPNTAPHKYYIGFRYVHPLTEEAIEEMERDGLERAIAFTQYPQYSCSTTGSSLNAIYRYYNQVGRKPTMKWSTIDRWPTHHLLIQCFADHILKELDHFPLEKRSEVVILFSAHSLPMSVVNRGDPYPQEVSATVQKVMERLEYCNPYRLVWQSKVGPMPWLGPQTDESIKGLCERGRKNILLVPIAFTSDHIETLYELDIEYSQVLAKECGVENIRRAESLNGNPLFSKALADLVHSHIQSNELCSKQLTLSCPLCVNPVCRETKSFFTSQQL

[4] = molecular target: RAC-gamma serine/threonine-protein kinase (Homo sapiens, UniProt Q9Y243)
Deoxycytidine kinase = Deoxycytidine kinase (Homo sapiens, UniProt P27707)
Ephrin type-A receptor 4 = Ephrin type-A receptor 4 (Homo sapiens, UniProt P54764)
Adenosine kinase = Adenosine kinase (Homo sapiens, UniProt P55263)
[5] = molecular target: T2, Mitogen-activated protein kinase 15 (Homo sapiens, UniProt Q8TD08)
T2 sequence (Q8TD08 whole entry): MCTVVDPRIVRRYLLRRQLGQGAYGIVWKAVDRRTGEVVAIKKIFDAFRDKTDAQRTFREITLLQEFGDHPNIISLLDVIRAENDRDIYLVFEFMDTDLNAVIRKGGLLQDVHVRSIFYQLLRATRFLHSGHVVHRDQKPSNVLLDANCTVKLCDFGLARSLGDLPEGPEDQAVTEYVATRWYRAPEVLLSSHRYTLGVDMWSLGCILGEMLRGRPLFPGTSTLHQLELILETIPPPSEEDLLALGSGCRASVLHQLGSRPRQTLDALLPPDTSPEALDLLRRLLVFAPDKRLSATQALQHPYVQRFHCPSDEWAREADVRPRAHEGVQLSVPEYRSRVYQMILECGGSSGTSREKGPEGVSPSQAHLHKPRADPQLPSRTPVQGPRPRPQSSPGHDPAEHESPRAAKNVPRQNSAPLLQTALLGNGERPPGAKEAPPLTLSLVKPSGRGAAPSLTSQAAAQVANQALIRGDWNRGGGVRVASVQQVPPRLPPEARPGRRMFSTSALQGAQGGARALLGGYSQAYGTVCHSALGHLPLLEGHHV

[6] = molecular target: T3, Serine/threonine-protein kinase TAO2 (Homo sapiens, UniProt Q9UL54)
T3 sequence (Q9UL54 whole entry): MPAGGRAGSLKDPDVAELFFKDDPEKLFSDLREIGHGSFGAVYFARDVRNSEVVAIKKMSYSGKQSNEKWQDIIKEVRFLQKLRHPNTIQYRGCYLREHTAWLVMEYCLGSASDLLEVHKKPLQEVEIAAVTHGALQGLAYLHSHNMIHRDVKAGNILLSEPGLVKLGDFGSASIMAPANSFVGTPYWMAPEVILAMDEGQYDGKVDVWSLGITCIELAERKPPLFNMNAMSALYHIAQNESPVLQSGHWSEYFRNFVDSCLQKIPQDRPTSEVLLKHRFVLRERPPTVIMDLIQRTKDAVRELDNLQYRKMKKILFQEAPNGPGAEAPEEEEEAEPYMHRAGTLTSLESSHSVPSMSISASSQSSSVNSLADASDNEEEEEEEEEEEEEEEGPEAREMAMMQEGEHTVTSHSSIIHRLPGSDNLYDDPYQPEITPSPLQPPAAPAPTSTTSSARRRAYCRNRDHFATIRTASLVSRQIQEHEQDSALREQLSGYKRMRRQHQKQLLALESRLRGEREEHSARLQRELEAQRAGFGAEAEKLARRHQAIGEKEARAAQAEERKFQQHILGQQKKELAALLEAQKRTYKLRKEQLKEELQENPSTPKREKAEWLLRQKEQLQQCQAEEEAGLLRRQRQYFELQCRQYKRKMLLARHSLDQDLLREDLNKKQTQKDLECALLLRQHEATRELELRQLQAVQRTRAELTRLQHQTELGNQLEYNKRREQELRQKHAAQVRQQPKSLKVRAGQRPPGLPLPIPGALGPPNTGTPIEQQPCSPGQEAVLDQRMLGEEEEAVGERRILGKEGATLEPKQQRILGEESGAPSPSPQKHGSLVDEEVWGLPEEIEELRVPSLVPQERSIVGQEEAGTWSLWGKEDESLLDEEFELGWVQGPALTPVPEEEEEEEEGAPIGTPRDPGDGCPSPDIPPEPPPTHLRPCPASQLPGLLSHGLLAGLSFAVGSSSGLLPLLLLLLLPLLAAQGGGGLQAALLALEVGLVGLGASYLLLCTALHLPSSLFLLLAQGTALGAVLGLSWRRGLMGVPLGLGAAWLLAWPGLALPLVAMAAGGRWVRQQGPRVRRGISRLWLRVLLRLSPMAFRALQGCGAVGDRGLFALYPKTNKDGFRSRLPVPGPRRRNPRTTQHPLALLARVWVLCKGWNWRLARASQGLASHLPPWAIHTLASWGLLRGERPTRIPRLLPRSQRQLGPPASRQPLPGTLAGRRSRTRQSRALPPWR
Note: in the data inactive means no Kd found up to 30 µM.

Ephrin type-A receptor 4, sequence (P54764 whole entry): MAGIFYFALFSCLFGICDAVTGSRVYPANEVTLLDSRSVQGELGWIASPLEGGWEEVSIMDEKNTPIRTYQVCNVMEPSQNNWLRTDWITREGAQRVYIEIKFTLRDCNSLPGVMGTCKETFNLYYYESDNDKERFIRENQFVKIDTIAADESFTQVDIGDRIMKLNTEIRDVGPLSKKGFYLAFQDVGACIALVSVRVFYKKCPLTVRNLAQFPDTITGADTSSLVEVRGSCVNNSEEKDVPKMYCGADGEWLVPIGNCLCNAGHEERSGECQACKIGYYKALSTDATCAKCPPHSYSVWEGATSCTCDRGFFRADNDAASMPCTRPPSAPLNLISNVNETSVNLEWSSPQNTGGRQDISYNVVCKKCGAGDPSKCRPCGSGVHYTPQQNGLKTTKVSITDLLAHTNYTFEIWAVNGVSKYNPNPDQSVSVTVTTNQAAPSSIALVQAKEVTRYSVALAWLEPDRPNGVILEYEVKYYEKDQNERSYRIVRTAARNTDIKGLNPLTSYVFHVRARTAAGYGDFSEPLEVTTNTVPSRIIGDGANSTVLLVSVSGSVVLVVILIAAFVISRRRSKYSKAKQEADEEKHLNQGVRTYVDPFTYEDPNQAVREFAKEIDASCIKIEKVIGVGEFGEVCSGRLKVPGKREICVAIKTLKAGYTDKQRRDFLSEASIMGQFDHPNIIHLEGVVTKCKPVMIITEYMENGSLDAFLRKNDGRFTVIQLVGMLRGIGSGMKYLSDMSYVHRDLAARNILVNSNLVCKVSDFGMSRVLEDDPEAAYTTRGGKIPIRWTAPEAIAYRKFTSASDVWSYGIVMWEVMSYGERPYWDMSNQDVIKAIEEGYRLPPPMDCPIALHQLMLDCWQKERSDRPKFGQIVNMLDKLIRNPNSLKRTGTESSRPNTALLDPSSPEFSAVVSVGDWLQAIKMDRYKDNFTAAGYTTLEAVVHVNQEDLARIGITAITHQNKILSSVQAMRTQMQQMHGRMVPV
Deoxycytidine kinase, sequence (P27707 whole entry): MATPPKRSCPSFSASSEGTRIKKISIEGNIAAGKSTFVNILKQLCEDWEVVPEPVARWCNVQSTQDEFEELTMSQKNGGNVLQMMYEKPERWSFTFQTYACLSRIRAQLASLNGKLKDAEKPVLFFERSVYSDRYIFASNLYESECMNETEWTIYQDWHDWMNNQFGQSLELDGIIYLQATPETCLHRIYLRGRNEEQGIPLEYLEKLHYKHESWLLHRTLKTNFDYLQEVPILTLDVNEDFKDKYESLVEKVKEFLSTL
RAC-gamma serine/threonine-protein kinase, sequence (Q9Y243 whole entry): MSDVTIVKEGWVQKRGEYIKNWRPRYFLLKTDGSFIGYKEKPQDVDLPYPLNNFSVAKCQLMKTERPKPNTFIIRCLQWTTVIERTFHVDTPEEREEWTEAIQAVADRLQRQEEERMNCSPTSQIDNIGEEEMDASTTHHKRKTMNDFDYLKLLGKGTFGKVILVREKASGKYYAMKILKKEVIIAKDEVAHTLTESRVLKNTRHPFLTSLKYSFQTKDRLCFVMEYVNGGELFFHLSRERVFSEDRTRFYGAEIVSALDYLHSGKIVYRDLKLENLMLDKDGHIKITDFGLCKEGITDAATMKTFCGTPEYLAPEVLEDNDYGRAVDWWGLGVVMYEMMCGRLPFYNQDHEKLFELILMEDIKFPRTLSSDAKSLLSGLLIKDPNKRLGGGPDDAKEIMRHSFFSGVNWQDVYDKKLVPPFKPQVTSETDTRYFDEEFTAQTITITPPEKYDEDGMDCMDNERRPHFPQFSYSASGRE
Adenosine kinase, sequence (P55263 whole entry): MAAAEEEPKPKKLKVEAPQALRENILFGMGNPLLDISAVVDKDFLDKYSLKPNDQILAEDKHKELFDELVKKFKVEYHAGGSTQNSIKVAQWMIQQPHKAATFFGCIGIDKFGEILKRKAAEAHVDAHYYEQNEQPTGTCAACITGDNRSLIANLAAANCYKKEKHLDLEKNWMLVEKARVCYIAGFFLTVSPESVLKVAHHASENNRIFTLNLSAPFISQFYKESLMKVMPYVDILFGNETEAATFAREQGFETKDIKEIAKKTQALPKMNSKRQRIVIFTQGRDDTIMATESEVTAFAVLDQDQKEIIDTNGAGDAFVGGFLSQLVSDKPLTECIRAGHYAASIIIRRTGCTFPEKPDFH
Serine/threonine-protein kinase PAK 4, sequence (O96013 whole entry): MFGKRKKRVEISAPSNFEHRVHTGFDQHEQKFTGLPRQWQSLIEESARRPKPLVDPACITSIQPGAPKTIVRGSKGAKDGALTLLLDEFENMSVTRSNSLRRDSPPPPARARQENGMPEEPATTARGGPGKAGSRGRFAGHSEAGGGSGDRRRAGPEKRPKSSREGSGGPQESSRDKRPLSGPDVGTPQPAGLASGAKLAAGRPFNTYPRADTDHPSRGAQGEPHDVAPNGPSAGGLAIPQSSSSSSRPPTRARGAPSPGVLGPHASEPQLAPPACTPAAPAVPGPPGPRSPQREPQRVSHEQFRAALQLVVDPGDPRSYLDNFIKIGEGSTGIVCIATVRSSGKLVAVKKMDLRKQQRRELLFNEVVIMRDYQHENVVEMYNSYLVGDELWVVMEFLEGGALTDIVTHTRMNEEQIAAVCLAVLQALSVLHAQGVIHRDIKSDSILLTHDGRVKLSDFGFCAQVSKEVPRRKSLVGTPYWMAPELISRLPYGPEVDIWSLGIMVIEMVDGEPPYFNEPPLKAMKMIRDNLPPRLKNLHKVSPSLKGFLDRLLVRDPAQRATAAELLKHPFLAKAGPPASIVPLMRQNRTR
Putative heat shock protein HSP 90-beta 2, sequence (Q58FF8 whole entry): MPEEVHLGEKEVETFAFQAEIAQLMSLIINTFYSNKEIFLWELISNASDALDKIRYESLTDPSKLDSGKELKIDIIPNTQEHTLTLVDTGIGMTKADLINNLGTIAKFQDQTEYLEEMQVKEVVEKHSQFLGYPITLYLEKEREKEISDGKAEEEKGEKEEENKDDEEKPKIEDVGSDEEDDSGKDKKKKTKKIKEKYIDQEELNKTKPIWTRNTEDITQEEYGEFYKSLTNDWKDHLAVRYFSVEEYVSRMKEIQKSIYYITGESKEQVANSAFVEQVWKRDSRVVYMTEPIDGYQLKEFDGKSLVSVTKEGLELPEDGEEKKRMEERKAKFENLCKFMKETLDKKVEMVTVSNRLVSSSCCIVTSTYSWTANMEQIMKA

| SMILES | Kd [1] | Kd [2] | Kd (Actin-related protein 2) | Kd [3] | Kd [4] | Kd (Deoxycytidine kinase) | Kd (Ephrin type-A receptor 4) | Kd (Adenosine kinase) | Kd [5] | Kd [6] | pKd [1] |
| --- | --- | --- | --- | --- | --- | --- | --- | --- | --- | --- | --- |
| CN1CCN(CCOc2cc(OC3CCOCC3)c3c(Nc4c(Cl)ccc5c4OCO5)ncnc3c2)CC1 [SARACATINIB] | > 30 µM (inactive) | > 30 µM (inactive) | > 30 µM (inactive) | > 30 µM (inactive) | > 30 µM (inactive) | > 30 µM (inactive) | 0.917 µM (active) | > 30 µM (inactive) | > 30 µM (inactive) | > 30 µM (inactive) |  |
| Cn1cc(-c2cnn3c(N)c(Br)c([C@@H]4CCCNC4)nc23)cn1 [SCH-900776] |  | > 30 µM (inactive) | > 30 µM (inactive) | > 30 µM (inactive) | > 30 µM (inactive) | > 30 µM (inactive) | > 30 µM (inactive) | > 30 µM (inactive) | > 30 µM (inactive) | > 30 µM (inactive) | 5.54 |
| CO[C@H]1C[C@@H]2CC[C@@H](C)[C@@](O)(O2)C(=O)C(=O)N2CCCC[C@H]2C(=O)O[C@H]([C@H](C)C[C@@H]2CC[C@@H](O)[C@H](OC)C2)CC(=O)[C@H](C)/C=C(\C)[C@@H](O)[C@@H](OC)C(=O)[C@H](C)C[C@H](C)/C=C/C=C/C=C/1C [SIROLIMUS] | > 30 µM (inactive) | > 30 µM (inactive) | > 30 µM (inactive) | > 30 µM (inactive) | > 30 µM (inactive) | > 30 µM (inactive) | > 30 µM (inactive) | > 30 µM (inactive) | > 30 µM (inactive) | > 30 µM (inactive) |  |
| CCS(=O)(=O)c1cccc(-c2cc(C(=O)NC3CCN(C)CC3)c(C)c3[nH]c4ncc(C)cc4c23)c1 [TAK-901] | > 30 µM (inactive) | > 30 µM (inactive) | > 30 µM (inactive) | > 30 µM (inactive) | > 30 µM (inactive) | > 30 µM (inactive) | 0.022 µM (active) | > 30 µM (inactive) | > 30 µM (inactive) | > 30 µM (inactive) |  |
| CO[C@H]1C[C@@H]2CC[C@@H](C)[C@@](O)(O2)C(=O)C(=O)N2CCCC[C@H]2C(=O)O[C@H]([C@H](C)C[C@@H]2CC[C@@H](OC(=O)C(C)(CO)CO)[C@H](OC)C2)CC(=O)[C@H](C)/C=C(\C)[C@@H](O)[C@@H](OC)C(=O)[C@H](C)C[C@H](C)/C=C/C=C/C=C/1C [TEMSIROLIMUS] | > 30 µM (inactive) | > 30 µM (inactive) | > 30 µM (inactive) | > 30 µM (inactive) | > 30 µM (inactive) | > 30 µM (inactive) | > 30 µM (inactive) | > 30 µM (inactive) | > 30 µM (inactive) | > 30 µM (inactive) |  |
| COc1cc2c(Nc3ccc(Cl)c(Cl)c3F)ncnc2cc1OC[C@@H]1C[C@@H]2CN(C)C[C@@H]2C1 [TESEVATINIB] | > 30 µM (inactive) | > 30 µM (inactive) | > 30 µM (inactive) | > 30 µM (inactive) | > 30 µM (inactive) | > 30 µM (inactive) | 0.44 µM (active) | > 30 µM (inactive) | > 30 µM (inactive) | > 30 µM (inactive) |  |
| O=C(Cc1ccc(-c2ccc(OCCN3CCOCC3)cc2)cn1)NCc1ccccc1 [TIRBANIBULIN] | > 30 µM (inactive) | > 30 µM (inactive) | > 30 µM (inactive) | > 30 µM (inactive) | > 30 µM (inactive) | > 30 µM (inactive) | > 30 µM (inactive) | > 30 µM (inactive) | > 30 µM (inactive) | > 30 µM (inactive) |  |

— ChEMBL document CHEMBL3991601, “The target landscape of clinical kinase drugs” (Science, 2017)
